# Test system: female NOD mice
# Experiment: Spontaneous autoimmune diabetes in non-obese diabetic (NOD) mouse model
# Assay type: in vivo
# Source text: Treatment of spontaneous autoimmune diabetes in non-obese diabetic (NOD) mouse model. The NOD model is used as an animal model for human type 1 diabetes. The NOD mouse strain spontaneously develops autoimmune (type 1) diabetes by a process that has similarities to human type 1 diabetes mellitus, e.g., immune-mediated selective destruction of the pancreatic islet 13-cells that produce insulin (M. A. Atkinson and N. K. Maclaren, New England J. Medicine, 331:1428-1436 1994). There is a higher incidence of diabetes (i.e., hyperglycemia, glucosuria, and hypoinsulinemia) in female vs. male NOD mice (80-90% vs. 10-20%, respectively). Disease incidence in this animal model is first observed at approximately 12 to 15 weeks of age with maximum incidence usually peaking 5 to 6 weeks later.
# Methods. An oral formulation containing 17α-ethynylandrost-5-ene-3β,7β,17β-triol in 30% w/v β-cyclodextrin sulfobutyl ether sodium salt (Captisol®; CyDex, Inc., Overland Park, Kans.) was used. Six-week old female NOD mice (approximately 20-25 grams) were purchased from The Jackson Laboratories (Bar Harbor, Me.) and housed in a vivarium under pathogen-free conditions. The animals were acclimated for at least one week prior to initiation of oral dosing with 17α-ethynylandrost-5-ene-3β,7β,17β-triol. Animals were randomized into 5 per cage upon receipt and cages were subsequently randomized into dosing groups.
# Female NOD mice were treated once daily with vehicle, 17α-ethynylandrost-5-ene-3β,7β,17β-triol (20 or 80 mg/kg in 100 μL, p.o.), or dexamethasone (0.25 mg/kg, 100 μL, i.p.) from 15 to 25 weeks of age (i.e., before the first incidence of diabetes; at the University of Catania), from 13 to 19 weeks of age (2 days after the first incidence of diabetes), or from 12 to 26 weeks of age (9 days after the first incidence of diabetes). Blood glucose was monitored using glucometers (ENCORE Glucometer, Bayer Corp., Elkhart, Ind.) at weekly intervals, beginning at 10 weeks of age. Mice with blood glucose levels 200 mg/dL on two consecutive occasions were considered diabetic. The percentage of animals with diabetes over the course of the experiment was monitored.
# Histological assessment of insulitis and functional 13-cell content was assessed at the time of disease diagnosis or at the end of the 26-week study (i.e., disease-free mice). Pancreata (after CO2 euthanasia) were immediately isolated and placed in 10% buffered formalin at room temperature overnight, and then embedded in paraffin. After de-paraffinizing, pancreas samples were rehydrated and 5 μm sections were prepared and fixed on glass slides. Some sections were stained with hematoxylin and eosin (H&E) while others were stained with anti-insulin antibody as follows; prepared sections were immersed in Tris-Buffered Saline (TBS: 10 mM Tris buffer, pH 7.4, 0.15 M NaCl) containing 1% of bovine serum albumin (BSA) and 5% normal goat serum for 2 h at room temperature followed by incubation with 2 μg/mL rat anti-insulin IgG2a monoclonal antibody (MAB1417; R&D Systems, Minneapolis, Minn.) in TBS/1% BSA overnight at 4° C. in a humidified chamber. After washing with TBS/0.5 Tween-20, sections were covered with biotinylated anti-rat IgG secondary antibody (BD biosciences, 1:1,000) for 1 h at room temperature, followed by washing with TBS/Tween-20 and incubation with streptavidin-horseradish peroxidase for 30 min. Sections were then incubated with chromogen substrate, DAB (BD Biosciences), for 5 min and counterstained with hematoxylin. The degree of insulitis (leukocyte infiltration per islet; H&E) and functional 13-cell content per islet (insulin production) was scored using a scale of 0 to 3 in which 0=none, 1=few, 2=moderate, 3=high content of inflammatory cells or functional β-cells. Pancreata that were scored were obtained from a randomly-selected portion of mice from each cohort and scores were reported as the mean±SEM for each cohort.
# [1] = dexamethasone 0.25 mg/kg i.p. once daily
# [2] = dexamethasone 0.25 mg/kg i.p. once daily, scale of 0 to 3
structure (smiles),measurement,setting,value
"C[C@@H]1C[C@H]2[C@@H]3CCC4=CC(=O)C=C[C@]4(C)[C@@]3(F)[C@@H](O)C[C@]2(C)[C@@]1(O)C(=O)CO [dexamethasone, reference compound]",Disease Incidence,[1],0.20 ± 0.20
same,No. Islets/pancreas (H&E),[1],8.2 ± 6.3
same,Insulitis Score/Islet (H&E),[2],2.0 ± 0.6
same,β-Cell Score/Islet (Insulin),[2],2.3 ± 0.3
same,first incidence of diabetes,"week 19, once daily treatment from 15 to 25 weeks of age (vehicle 25%)",0%

# Source: patent publication US20100227841A1, “Patient populations and treatment methods” (Harbor BioSciencs, Inc., priority 2008, published 2010)
